Results as given in ChEMBL document CHEMBL2331161, “Structure-guided design, synthesis and in vitro evaluation of a series of pyrazole-based fatty acid binding protein (FABP) 3 ligands” (Bioorg Med Chem Lett, 2013).

Key:
[1] = biological target: Fatty acid-binding protein, adipocyte (Homo sapiens, UniProt P15090)
[2] = biological target: T1, Fatty acid-binding protein, heart (Homo sapiens, UniProt P05413)
Description: Inhibition of human FABP3 by 8-anilino-1-naphthalenesulfonic acid based fluorescence displacement assay

[3] = biological target: T1, Fatty acid-binding protein, heart; test: Binding affinity to human FABP3 by surface plasmon resonance assay

T1 sequence (P05413 whole entry): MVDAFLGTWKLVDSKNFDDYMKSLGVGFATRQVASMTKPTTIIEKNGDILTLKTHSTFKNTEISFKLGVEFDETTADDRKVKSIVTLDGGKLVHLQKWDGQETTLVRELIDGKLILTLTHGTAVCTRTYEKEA
Sequence of Fatty acid-binding protein, adipocyte (P15090 whole entry): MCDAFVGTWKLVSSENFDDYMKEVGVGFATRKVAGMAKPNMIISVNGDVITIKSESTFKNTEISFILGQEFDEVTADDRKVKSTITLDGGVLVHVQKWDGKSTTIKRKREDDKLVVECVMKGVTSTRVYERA

Row | Structure (SMILES) | IC50 ([1]; read-out: IC50) | IC50 [2] | Kd [3] | IC50 [1]
1 | O=C(O)COc1cccc(-c2ccccc2-c2cc(-c3ccccc3)n(-c3ccccc3)n2)c1 | 0.987 µM | > 10000 µM | – | –
2 | Cc1ccc(-c2cc(-c3ccccc3OCCCCC(=O)O)nn2-c2ccccc2)cc1 | 259 µM | > 10000 µM | – | –
3 | O=C(O)CCCOc1ccccc1-c1cc(-c2ccccc2)n(C2CCCCC2)n1 | 23.5 µM | 5.26 µM | – | –
4 | O=C(O)CCCOc1ccccc1-c1cc(-c2ccccc2)n(C2CCCCCC2)n1 | 15.5 µM | 6.47 µM | – | –
5 | O=C(O)COc1ccccc1-c1cc(-c2ccc(Cl)cc2)n(-c2ccccc2)n1 | > 10000 µM | > 10000 µM | – | –
6 | O=C(O)CCCOc1ccccc1-c1cc(-c2ccc(Cl)cc2)n(-c2ccccc2)n1 | 6.13 µM | 21 µM | – | –
7 | O=C(O)CCCCOc1ccccc1-c1cc(-c2ccc(Cl)cc2)n(-c2ccccc2)n1 | 74 µM | 243 µM | – | –
8 | O=C(O)CCCCCCOc1ccccc1-c1cc(-c2ccc(Cl)cc2)n(-c2ccccc2)n1 | 31 µM | > 10000 µM | – | –
9 | Cc1ccc(-c2cc(-c3ccccc3OCCCC(=O)O)nn2-c2ccccc2)cc1 | 5.41 µM | 4730 µM | – | –
10 | O=C(O)CCCOc1ccccc1-c1cc(-c2ccc(Br)cc2)n(-c2ccccc2)n1 | 9.51 µM | 224 µM | – | –
11 | O=C(O)CCCOc1ccccc1-c1cc(-c2ccccc2)n(-c2ccccc2)n1 | 3.02 µM | 2.01 µM | 16.3 µM | –
12 | O=C(O)CCCCOc1ccccc1-c1cc(-c2ccccc2)n(-c2ccccc2)n1 | 6.39 µM | > 10000 µM | – | –
13 | O=C(O)CCCCOc1ccccc1-c1cc(-c2ccc(Br)cc2)n(-c2ccccc2)n1 | 86 µM | 22.3 µM | – | –
14 | O=C(O)CCCOc1ccccc1-c1cc(-c2ccccc2)n(-c2ccc(F)cc2)n1 | – | 1.14 µM | 5.26 µM | –
15 | O=C(O)CCCOc1ccccc1-c1cc(-c2ccccc2)n(-c2ccc(Cl)cc2)n1 | 4.32 µM | 0.733 µM | 2.17 µM | –
16 | CC(C)c1ccc(-n2nc(-c3ccccc3OCCCC(=O)O)cc2-c2ccccc2)cc1 | 10.3 µM | – | – | –
17 | COc1ccc(-n2nc(-c3ccccc3OCCCC(=O)O)cc2-c2ccccc2)cc1 | 13.6 µM | 1.65 µM | – | –
18 | O=C(O)CCCOc1ccccc1-c1cc(-c2ccccc2)n(-c2ccccc2Cl)n1 | 4.27 µM | 1.16 µM | – | –
19 | COc1ccccc1-n1nc(-c2ccccc2OCCCC(=O)O)cc1-c1ccccc1 | – | 505 µM | – | Not Active
20 | O=C(O)CCCOc1ccccc1-c1cc(-c2ccccc2)n(-c2cccc(Cl)c2)n1 | 2.5 µM | – | – | –
21 | O=C(O)CCCOc1ccccc1-c1cc(-c2ccccc2)n(C2CCCC2)n1 | 16.6 µM | 6.03 µM | – | –
